# Experimental data: ChEMBL document CHEMBL1129130, “Preparation, antimicrobial evaluation and mutagenicity of differently substituted [2-hydroxyaryl]-[1-methyl-5-nitro-1H-2-imidazolyl]methanols” (1996)
# Key:
# [1] = Minimum inhibitory concentration (MIC) of compound expressed as geometric mean of various bacterias.*; type: functional
# [2] = tested on: Salmonella typhimurium; experiment: Compound was tested for the mutagenicity activity in the Salmonella Typhimurium reverse mutation assay; (+) - low levels of mutagenicity; type: functional, organism-based; details: Salmonella enterica subsp. enterica serovar Typhimurium
# [3] = tested on: Salmonella typhimurium; experiment: Compound was tested for the mutagenicity activity in the Salmonella Typhimurium reverse mutation assay; ++/+++-indicates the levels of mutagenicity as the number of revertant colonies obtained increases 5/10 times; type: functional, organism-based; details: Salmonella enterica subsp. enterica serovar Typhimurium
# [4] = tested on: Salmonella typhimurium; experiment: Compound was tested for the mutagenicity activity in the Salmonella Typhimurium reverse mutation assay (+) - low levels of mutagenicity; type: functional, organism-based; details: Salmonella enterica subsp. enterica serovar Typhimurium
# [5] = Minimum inhibitory concentration (MIC) of compound expressed as geometric mean of various bacterias.; type: functional
# [6] = tested on: Salmonella typhimurium; experiment: Compound was tested for the mutagenicity activity in the Salmonella Typhimurium reverse mutation assay; +-indicates the levels of mutagenicity as the number of revertant colonies obtained increases 1.5-2 times; type: functional, organism-based; details: Salmonella enterica subsp. enterica serovar Typhimurium
# [7] = tested on: Salmonella typhimurium; experiment: Compound was tested for the mutagenicity activity in the Salmonella Typhimurium reverse mutation assay;(+) - low levels of mutagenicity; type: functional, organism-based; details: Salmonella enterica subsp. enterica serovar Typhimurium
smiles,measurement,setting,value
Cn1c([N+](=O)[O-])cnc1C(O)c1cc(C2C3C[C@H]4C[C@@H](C3)C[C@@H]2C4)ccc1O (some centres undefined),MIC,[1],1.8 µM
COc1cc(C(O)c2ncc([N+](=O)[O-])n2C)c(O)c(C2C3C[C@H]4C[C@@H](C3)C[C@@H]2C4)c1 (some centres undefined),MIC,[1],4.21 µM
same,Mutagenicity,[2],low levels of mutagenicity
COc1cc(C(O)c2ncc([N+](=O)[O-])n2C)c(O)c(C(C)(C)C)c1 (centres undefined),MIC,[1],28.2 µM
Cn1c([N+](=O)[O-])cnc1C(O)c1cc(C(C)(C)C)ccc1O (centres undefined) [ABUNIDAZOLE],MIC,[1],13.1 µM
same,Mutagenicity,[3],++/+
Cn1c([N+](=O)[O-])cnc1C(O)c1cc(C2CCCCC2)ccc1O (centres undefined),Mutagenicity,[4],low levels of mutagenicity
same,MIC,[5],8.82 µM
Cn1c([N+](=O)[O-])cnc1C(O)c1cccc(C2CCCCC2)c1O (centres undefined),MIC,[1],4.68 µM
same,Mutagenicity,[6],Levels of mutagencity as the number of revertant colonies obtained increases 1.5-2 times
Cn1c([N+](=O)[O-])cnc1C(O)c1cc(F)cc(C2C3C[C@H]4C[C@@H](C3)C[C@@H]2C4)c1O (some centres undefined),MIC,[1],3.97 µM
same,Mutagenicity,[7],low levels of mutagenicity
Cn1c([N+](=O)[O-])cnc1C(O)c1cccc(C23C[C@H]4C[C@@H](C2)C[C@@H](C3)C4)c1O (some centres undefined),MIC,[1],4.46 µM
same,Mutagenicity,[6],Levels of mutagencity as the number of revertant colonies obtained increases 1.5-2 times
Cn1c([N+](=O)[O-])cnc1C(O)c1cc(Cl)cc(C2C3C[C@H]4C[C@@H](C3)C[C@@H]2C4)c1O (some centres undefined),MIC,[1],6.78 µM
same,Mutagenicity,[7],low levels of mutagenicity
Cc1ncc([N+](=O)[O-])n1CCO [METRONIDAZOLE],MIC,[1],1.46 µM
Cn1c([N+](=O)[O-])cnc1C(O)c1cc(C23C[C@H]4C[C@@H](C2)C[C@@H](C3)C4)ccc1O (some centres undefined),MIC,[1],2.43 µM
Cn1c([N+](=O)[O-])cnc1C(O)c1cccc(C2C3C[C@H]4C[C@@H](C3)C[C@@H]2C4)c1O (some centres undefined),MIC,[1],3.84 µM
